# Experimental data reported in publication PMC5037475, “The Dinoflagellate Toxin 20-Methyl Spirolide-G Potently Blocks Skeletal Muscle and Neuronal Nicotinic Acetylcholine Receptors” (Toxins, 2016).
# Entries after “also recorded” stand apart in the source; their conditions may differ. Where two headings read alike, the source gives them in different places.
# How the values were obtained:
# [1] = target: T1, chick chimeric α7-5HT3 nAChR (UniProt P22770+P23979, M226I/T225I); test: Competition binding with [125I]α-BTX on HEK-293 cells expressing chimeric α7-5HT3 nAChR
# T1 construct: expressed in transfected cells; host or cells: HEK-293
# mouse = conditions: cited from earlier work; for LD50: mouse
# [2] = target: Torpedo muscle-type α1_2β1γδ nAChR; test: Competition binding with [125I]α-BTX on Torpedo membranes; design: species or system Torpedo marmorata; conditions: for Ki: [125I]α-BTX, equilibrium 4 h, mean ± SEM
# human α7 nAChR = target: T2, human α7 nAChR (Homo sapiens, UniProt P36544); test: Voltage-clamp recording of ACh-evoked currents in Xenopus oocytes expressing human α7 nAChR; assay type: cell-based; conditions: ACh 350 μM (EC50), 3 s, −60 mV; read-out: IC50, inhibition of ACh-evoked current
# T2 construct: expressed in transfected cells; host or cells: Xenopus laevis oocytes
# Description: Functional analysis of the action of 20-meSPX-G was also performed using voltage-clamp recordings in Xenopus oocytes previously transfected with human α7 or α4β2-encoding cDNAs.
# Oocytes were obtained under anesthesia (ethyl-3-amino benzoate methanesulfonate salt solution (1 g·L^−1, Sigma-Aldrich, Saint Quentin Fallavier, France) from mature female Xenopus laevis frogs. Oocytes were recovered and placed in a medium containing no added calcium and containing (in mM): NaCl, 88; KCl, 2.5; MgCl2, 1; and HEPES, 5 (pH 7.6). After extensive washing with this solution, oocytes were transferred to a Barth’s solution containing (in mM): NaCl, 88; KCl, 1; MgSO4, 0.33; CaCl2, 0.41; MgSO4, 0.82; Ca(NO3)2, 0.33; NaHCO3, 2.4; and HEPES, 10 (pH = 7.2) supplemented with kanamycine 0.1 mg·mL^−1. Oocytes (stage V–VI) were defolliculated (manually) and microinjected with 50 nL of human α7 mRNA (0.1 μg·μL^−1), or with a 50 nL mixture of plasmids carrying the cDNA of α4 and β2 (0.3 μg·μL^−1, each). For micro-injection a Nanoliter 2000 Micro4 Controller (World Precision Instruments, Inc., Hertfordshire, UK) was used. […]
# Currents evoked by ACh were recorded with a two-microelectrode voltage-clamp amplifier (OC-725B, Warner Instrument Corp., Hamden, CT, USA) at −60 mV holding potential. […]
# [3] = system: mouse neuromuscular system; test: In vivo compound muscle action potential (CMAP) recording after local i.m. injection in anesthetized mice
# Excerpt: Figure 3 Effects of i.m. local injections of 20-meSPX-G in vivo on the mouse neuromuscular system. (A) Compound muscle action potentials (CMAPs) recorded from the tail muscle in response to caudal motor nerve stimulation (increasing intensities, scheme), before and at various times after injection of the cyclic imine toxin (35 pg/mouse); (B) time-course of the effects of 20-meSPX-G injections (1.75, 35 and 350.5 pg/mouse) on the CMAP maximal amplitude. Arrows indicate the time of injections; and (C) dose-response curve of the effects of 20-meSPX-G injections on the maximal CMAP amplitude. Each value represents the mean ± SEM of data obtained from 4–6 mice, and is expressed relatively to that obtained before injections. The sigmoid curve was obtained by nonlinear regression analysis through data points (R^2 ≥ 0.99). The 20-meSPX-G dose required to block 50% of the maximal CMAP amplitude (dashed lines) was 47 pg/mouse.
# In vivo recordings from the neuromuscular system were done in mice anesthetized by isoflurane inhalation, with a minimally-invasive electrophysiological method using Qtrac software (Institute of Neurology, Queen Square, London, UK, 2013), as previously described. In brief, electrical stimulations were delivered at a constant frequency of 1.25 Hz to the caudal motor nerve (at the base of the tail) with surface electrodes, and the compound muscle action potential (CMAP) was recorded using needle-electrodes inserted into the tail muscle. 20-me-SPX-G, diluted in phosphate buffer saline containing <1% methanol, was injected intramuscularly (i.m.), between stimulation and ground electrodes, in a single bolus of 1.25−5 µL with a micro-syringe (10 μL volume). Continuous on-line recordings were started around six minutes before injections to determine the toxin and/or solvent effects, as a function of time, on selected excitability parameters, such as the CMAP amplitude and excitability threshold.
# [4] = system: Torpedo muscle-type α1_2β1γδ nAChR; test: Voltage-clamp recording of ACh-evoked currents in Xenopus oocytes microtransplanted with Torpedo nAChR; assay type: cell-based, Torpedo marmorata
# Description: The fact that the amplitude of the ACh-evoked current was usually ≥1 µA (n = 6) was indicative of a good incorporation of the Torpedo muscle-type receptor into the oocyte membrane.
# Torpedo marmorata fish were anaesthetized with 0.03% tricaine (Sigma-Aldrich, Saint Quentin Fallavier, France) in seawater, before surgical removal of electric organs. From sliced Torpedo electric organs, purified membranes enriched in the α1_2β1γδ nAChR were prepared at 4 °C in 5 mM glycine, using procedures described previously. Aliquots of the purified membranes were stored at –80 °C until use. Microtransplantation of Torpedo nAChR [39] consisted in a single microinjection of a membrane suspension (50 nL at 3.5 mg·mL^−1 protein) into the oocyte cytoplasm using a Nanoliter 2000 Micro4 Controller mounted on a microscope (World Precision Instruments, Inc., Hertfordshire, UK), as previously described.
# Currents evoked by ACh were recorded with a two-microelectrode voltage-clamp amplifier (OC-725B, Warner Instrument Corp., Hamden, CT, USA) at −60 mV holding potential. Micro-electrodes had 0.5–1.5 MΩ tip resistances. A pCLAMP-9/Digidata-1322A system (Molecular Devices, Union City, CA, USA) was used for data recording. […]
# human α3β2 nAChR = target: T3, human α3β2 nAChR (Homo sapiens, UniProt P17787+P32297); test: Competition binding with [3H]epibatidine on HEK-293 cells expressing human α3β2 nAChR; conditions: 4 h, mean ± SEM
# T3 construct: expressed in transfected cells; host or cells: HEK-293
# human α4β2 nAChR [5] = target: T4, human α4β2 nAChR (Homo sapiens, UniProt P17787+P43681); test: Voltage-clamp recording of ACh-evoked currents in Xenopus oocytes expressing human α4β2 nAChR; assay type: cell-based; conditions: ACh 150 μM (EC50), −60 mV; read-out: IC50, inhibition of ACh-evoked current
# Excerpt: Oocytes were obtained under anesthesia (ethyl-3-amino benzoate methanesulfonate salt solution (1 g·L^−1, Sigma-Aldrich, Saint Quentin Fallavier, France) from mature female Xenopus laevis frogs. Oocytes were recovered and placed in a medium containing no added calcium and containing (in mM): NaCl, 88; KCl, 2.5; MgCl2, 1; and HEPES, 5 (pH 7.6). After extensive washing with this solution, oocytes were transferred to a Barth’s solution containing (in mM): NaCl, 88; KCl, 1; MgSO4, 0.33; CaCl2, 0.41; MgSO4, 0.82; Ca(NO3)2, 0.33; NaHCO3, 2.4; and HEPES, 10 (pH = 7.2) supplemented with kanamycine 0.1 mg·mL^−1. Oocytes (stage V–VI) were defolliculated (manually) and microinjected with 50 nL of human α7 mRNA (0.1 μg·μL^−1), or with a 50 nL mixture of plasmids carrying the cDNA of α4 and β2 (0.3 μg·μL^−1, each). For micro-injection a Nanoliter 2000 Micro4 Controller (World Precision Instruments, Inc., Hertfordshire, UK) was used. Oocytes that were microinjected were incubated at 18 °C in Barth’s solution, and electrophysiological recordings were performed 3−4 days after microinjection.
# Currents evoked by ACh were recorded with a two-microelectrode voltage-clamp amplifier (OC-725B, Warner Instrument Corp., Hamden, CT, USA) at −60 mV holding potential. Micro-electrodes had 0.5–1.5 MΩ tip resistances. […]
# [6] = system: isolated mouse extensor digitorum longus (EDL) neuromuscular preparations, endowed with the α1_2βδε nAChR; test: Nerve-evoked isometric twitch tension on isolated mouse EDL nerve-muscle preparations
# Description: The onset of the contraction block was rapid at high 20-meSPX-G concentration, with a complete block of the twitch response within 60 min at concentrations above 10 nM.
# Figure 2 (A) Nerve-evoked isometric twitch responses on isolated mouse extensor digitorum longus (EDL) before and after the action of 10 nM 20-meSPX-G; and (B) concentration-response curve for the action of 20-meSPX-G on nerve-evoked isometric twitch response. Data points represent the normalized twitch response, relative to the respective controls. Each point is the mean ± SEM of 4 nerve muscle preparations at 60 min toxin exposure.
# Isometric twitch tension measurements were performed on isolated mouse EDL nerve-muscle preparations after rapid removal from euthanized animals. The isolated EDL nerve-muscle preparation was mounted in a silicone-lined bath perfused with a Krebs-Ringer solution of the following composition (in mM): NaCl 140, KCl 5, CaCl2 2, MgCl2 1, glucose 11, and HEPES 5 (pH 7.4), continuously perfused with pure O2 throughout the experiment. For muscle tension measurements, one of the muscle tendons was securely anchored onto the silicone-coated bath. The other tendon was attached to an isometric force displacement transducer (FT03, Grass Instruments, West Warwick, RI, USA) via an adjustable stainless-steel hook. Muscle twitches were induced either by motor nerve stimulation, or by direct electrical muscle stimulation with supramaximal 0.15 ms duration current pulses delivered by a stimulator (S-44 Grass Instruments), through an electrode assembly placed along the muscle length. The resting tension was monitored and kept constant for each tested preparation through a mobile micrometer stage. Signals from the force transducer were collected, and digitized with a Digidata-1322A A/D interface board (Axon Instruments, Union City, CA, USA), as previously reported.
# human α4β2 nAChR [7] = target: T4, human α4β2 nAChR; test: Competition binding with [3H]epibatidine on HEK-293 cells expressing human α4β2 nAChR; design: expressed in transfected cells; host or cells: HEK-293
# [8] = target: Torpedo muscle-type α1_2β1γδ nAChR; conditions: previously reported; cited from earlier work
# [9] = system: mouse neuromuscular system; conditions: local injection, mice; cited from earlier work
# [10] = acyclic aminoketone spirolides; cited from earlier work
# [11] = target: Torpedo muscle-type α1_(2)β1γδ nicotinic acetylcholine receptor (Torpedo marmorata (endogenous in electric organ)) (UniProt P02711); test: radioligand binding
# [12] = i.m. injection, anesthetized mice, corresponding to 47 pg/mouse
molecule,measurement,setting,value
20-methyl spirolide G [20-meSPX-G],Ki,"[1]; [125I]α-BTX, HEK-293 cells, mean ± SEM",0.11 ± 0.08 nM
same,times more active than MLA,"[1]; α7 / chimeric α7-5HT3, from Ki values",about 7.5 times
same,lethality,"mouse; mice, i.p. administration of 0.063 mg·kg^−1",absence of lethality
same,LD50,mouse; by feeding,630 µg/kg
same,LD50,mouse; intraperitoneal (i.p.) injection,8 µg/kg
same,LD50,mouse; orally by gavage,160 µg/kg
same,Ki,[2],0.028 ± 0.005 nM
same,fold lower affinity than α-toxin from Naja nigricollis,[2]; from Ki values of Table 1,about 2.5 fold
same,IC50,human α7 nAChR,0.48 nM
same,onset of the effect on CMAP amplitude,[3]; 1.75 pg/mouse i.m.,15.8 ± 1.9 min
same,block of CMAP amplitude,"[3]; 1.75 pg/mouse i.m., mean",9%
same,block of CMAP amplitude,[3]; 350.5 pg/mouse i.m.,91%
same,onset of the effect on CMAP amplitude,[3]; 350.5 pg/mouse i.m.,7.7 ± 2.1 min
same,"CMAP maximal amplitude after spontaneous recovery, relative to controls",[3]; 35–87.6 pg/mouse i.m.,78.5%
same,time for CMAP maximal amplitude to return to 78.5% of controls,[3]; 35–87.6 pg/mouse i.m.,≤ 53.3 ± 19.6 min
same,"ED50, dose required to block 50% of the maximal CMAP amplitude","[3]; i.m. injection, anesthetized mice",47 pg/mouse
same,"ED50 (also called IC50), block of maximal CMAP amplitude",[3]; [12],0.0017 µg/kg
same,"ED50, block of maximal CMAP amplitude",[3]; [12],2.4 pmol/kg
same,agonist action,"[4]; 3.1 nM toxin applied alone, −60 mV",no agonist action
same,IC50,"[4]; ACh 25 µM (EC50), −60 mV holding potential, read-out: IC50, inhibition of ACh-evoked current",0.36 nM
same,Ki,human α3β2 nAChR,0.04 ± 0.001 nM
same,IC50,human α4β2 nAChR [5],2.1 nM
same,reversal of neuromuscular transmission block by wash-out,[6]; continuous wash-out for 30 min with spirolide-free medium,not completely reversed
same,IC50,"[6]; isolated mouse EDL, 60 min toxin exposure, read-out: IC50, block of nerve-evoked muscle contractions",4.8 nM
same,concentration giving complete block of the twitch response within 60 min,"[6]; nerve-evoked isometric twitch, isolated mouse EDL",above 10 nM
same,effect on contractions elicited by direct electrical muscle stimulation,[6]; when nerve-evoked twitch was blocked (10 nM),lack of a direct effect; also recorded: no action
same,fold lower affinity in human α4β2 than in human α3β2 nAChR,human α4β2 nAChR [7]; [3H]epibatidine competition binding,90 fold
same,Ki,"human α4β2 nAChR [7]; [3H]epibatidine, HEK-293 cells, 4 h, mean ± SEM",3.6 ± 0.07 nM
C=C1CCCC2=NC[C@H](C)[C@@H](C)C[C@@]23CCC(C(=O)O)=C[C@@H]3[C@@H]2O[C@]3(C[C@H]4CCC[C@@]5(CC[C@@]6(O[C@@H](CC[C@@]6(C)O)C1)O5)O4)C[C@@H](C)[C@@H](O)[C@H]2O3 [pinnatoxin A],Ki,[8],2.8 nM
C=C1CCCC2=NC[C@H](C)[C@@H](C)C[C@@]23CCC([C@@H]2C=C(C)C(=O)O2)=C(C)[C@@H]3/C=C(\C)[C@@H](O)C[C@@H]2CC[C@@]3(CC[C@@]4(O[C@@H](CC[C@@]4(C)O)C1)O3)O2 [13-desmethyl spirolide C],Ki,[8],0.08 nM
same,"IC50, reduction of CMAP amplitude in vivo",[9],6 ng/kg
spirolide F,toxicity,[10],no toxicity
"COc1cc2c3cc1Oc1cc(ccc1O)C[C@@H]1c4c(cc(OC)c(O)c4Oc4ccc(cc4)C[C@@H]3N(C)CC2)CC[N+]1(C)C [d-tubocurarine, reference compound]",fold higher concentration needed for a similar degree of neuromuscular blockade (IC50) compared with 20-meSPX-G,[6]; comparison with literature value,75 fold
α-toxin from Naja nigricollis (from UniProt P01426 1-61) (natural protein),Ki,[11],0.011 nM
C=C(CCCC(=O)C1(CCC(C)CN)CCC(C2C=C(C)C(=O)O2)=C(C)C1/C=C(\C)C(O)CC)CC1CCC(C)(O)C2(CCC3(CC(C)CO3)O2)O1 (stereo not drawn) [spirolide E],toxicity,[10],no toxicity
"α-Toxin (snake): α-toxin from Naja nigricollis, a short-chain curaremimetic toxin (61 residues and four disulfides), synthesized (protein, disulfide (positions not given here), α-toxin from Naja nigricollis, a short-chain curaremimetic toxin (61 residues and four disulfides), synthesized) LECHNQQSSQPPTTKTCPGETNCYKKVWRDHRGTIIERGCGCPTVKPGIKLNCCTTDKCNN",Ki,[2],0.011 ± 0.002 nM
